How the values were obtained:
N2 WT C. elegans = assay: IsoK-lysyl-lactam protein adduct quantification by LC/MS/MS; format: in vivo; settings: increasing concentrations of SA until day 15, versus vehicle control; p<0.01
Description: The mechanism by which IsoKs inactivate protein targets involves covalent adduction of the epsilon amine group on the side chains of lysine residues within target proteins (FIG. 2A). The initial product of this covalent adduction is a lactam ring structure composed of the lysyl side chain and the isoketal. SA's amine group is much more reactive toward IsoKs and preserves protein function by more rapidly forming an adduct with the IsoK, preventing the adduction of lysyl side chains. If this mechanism is operative in vivo when C. elegans are treated with SA, a dose-dependent reduction in IsoK-lysyl-lactam adducts should be observed. To test this directly, WT N2 worms were treated with vehicle or increasing concentrations of SA until day 15, then collected for IsoK-lysyl-lactam adduct quantification by liquid chromatography tandem mass spectrometry (LC/MS/MS) using a heavy isotope-labeled internal standard for quantification.
Worms grown on FUDR containing SA-OP50-seeded NGM plates were collected at Day 15 adult stage by washing in M9 medium, followed by an ice-cold 60% w/v sucrose gradient to segregate clean bacteria-free adult worms from bacterial debris. Clean worms were transferred to Eppendorf tubes and flash-frozen in liquid nitrogen and thawed at 37° C. 3×. […] Levels of IsoK-lysyl-lactam adduct was measured as previously described. […]

MnSOD = assay: Western blot of acetyl-Lys 122 MnSOD; format: in vivo, C. elegans; settings: 500 μM SA, day 15; WT N2 compared to VC199 treated with the same dose; P>0.05
Description: One of the major stimuli for activation of sirtuins is oxidative stress. […] Indeed, the mitochondrial antioxidant manganese superoxide dismutase (MnSOD) has been identified as one of the major protein targets that is deacetylated by sirtuin isoforms, with deacetylation enhancing the enzymatic activity of MnSOD [60]. If SA indeed preserves SIR-2.1 enzymatic function in vivo, the present inventors hypothesized that SA treatment would dose-dependently decrease biomarkers of oxidant injury in a SIR-2.1-dependent manner. To quantify oxidant injury, the present inventors measured F3-isoprostanes (F3-IsoPs). F3-IsoPs are the products of free radical-mediated peroxidation of eicosapentaenoic acid (EPA), and are known to be a highly sensitive and accurate marker of oxidative damage in Caenorhabditis elegans. F3—IsoPs were collected from WT N2 and from VC199 (SIR-2.1 deficient strain) nematodes grown on OP50-NGM agar plates containing increasing concentrations of SA from Day 1 of adulthood until collection at Day 15. […] To further characterize SA's ability to preserve SIR-2.1 function, the present inventors assessed acetylation of MnSOD at Lys 122.
Day 15 adult worms grown on FUDR containing SA-OP50-seeded NGM plates were harvested in M9 medium, followed by floatation on an ice-cold 60% w/v sucrose gradient to segregate clean bacteria-free adult worms from bacterial debris. […]

VC199 [sir-2.1(ok434)] = assay: Pharyngeal pumping rate, VC199; format: in vivo, C. elegans; settings: increasing concentrations of SA, day 15; P=0.5
Description: As with the N2 strain, the present inventors treated VC199 nematodes with increasing concentrations of SA and assessed the age-dependent accumulation of autofluorescent lipofuscin granules and decrease in pharyngeal pumping rate.
C. elegans pharyngeal pumping rate assays were performed on 60-mm agar plates with bacterial lawns at room temperature. Every fifth day, worms were transferred to fresh bacteria-seeded NGM plates, and incubated at 25° C. for 10 min in order to equilibrate feeding rates before measurement. After 10 min incubation, worms were observed under the Zeiss TLB 3.1 microscope with focus on the pharynx. The number of contractions in the terminal bulb of the pharynx was counted for 20 s and then plotted.

## NCc1ccccc1O [SA, salicylamine]
N2 WT C. elegans
  IsoK-lysyl-lactam adduct levels: significant, dose-dependent reduction
MnSOD
  acetyl-Lys 122 in MnSOD: trend toward lower acetyl-Lys 122
VC199 [sir-2.1(ok434)]
  pharyngeal pumping rate: failed to preserve pharyngeal pumping rate
